Data reported in patent US11874281B2, “Assays for detecting modified compounds” (Enzo Life Sciences, Inc., priority 2010, dated 2024).

Target: human sphingosine kinase 1 (hSK1) (Homo sapiens, UniProt Q9NYA1)
Test: sphingosine kinase 1 assay with fluoresceinated sphingosine, barium acetate/ethanol precipitation of fluoresceinated S1P, fluorescence readout
Format: biochemical
Settings: 100 μM inhibitor; 4 μM sphingosine fluoresceine; 500 μM ATP; 1 h at 37° C.
From the text: Sphingosine is phosphorylated at the non-polar end by the enzymes sphingosine kinase 1 and sphingosine kinase 2, to form sphingosine-1-phosphate (S1P). S1P is an important signaling molecule, and serves in particular as a major regulator of vascular and immune systems. See, e.g., Lloyd-Evans et al., Nat. Med. 14:1247-1255 (2008); Ryu et al., EMBO J. 25:5840-5851 (2006); Maceyka et al., J. Lipid Res. 50:S272-S276 (2009); Peterson et al., Proc. Natl. Acad. Sci. USA 105:20764-20769; and U.S. Pat. No. 6,730,480. Thus, the detection of S1P and the sphingosine kinases is important for the understanding of the various systems that S1P influences. Current methods for separating sphingosine from S1P generally use chromatographic, electrophoretic or spectrometric methods. See, e.g., Bandhuvula et al., Biochem. Biophys. Res. Commun. 380:366-370 (2009); Lee et al., Anal. Chem. 80:1620-1627 (2008); Jin et al., Arch. Pharm. […]
The S1P formed by the enzyme was then precipitated in the reaction mix by the addition of 5 μl of 1 M barium acetate+300 μL of 100% ethanol, followed by 30 min incubation on ice. […] The eluted fluoresceinated S1P was quantified by measuring intensity of fluorescence. Preliminary studies established that the two wash steps were sufficient to remove essentially the entire quantity of unprecipitated sphingosine fluorescein. […]

Chain of human sphingosine kinase 1 (hSK1) (Q9NYA1 whole entry): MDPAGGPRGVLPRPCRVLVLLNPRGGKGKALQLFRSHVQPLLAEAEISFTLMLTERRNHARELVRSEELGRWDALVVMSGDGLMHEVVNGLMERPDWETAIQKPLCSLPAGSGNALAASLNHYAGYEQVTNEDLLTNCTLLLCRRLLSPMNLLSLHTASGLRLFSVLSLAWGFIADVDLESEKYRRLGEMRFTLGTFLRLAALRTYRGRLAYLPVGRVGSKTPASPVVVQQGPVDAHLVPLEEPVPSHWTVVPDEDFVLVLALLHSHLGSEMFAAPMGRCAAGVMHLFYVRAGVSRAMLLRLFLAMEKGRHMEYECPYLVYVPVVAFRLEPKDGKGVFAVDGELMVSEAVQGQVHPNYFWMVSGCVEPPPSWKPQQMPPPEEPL

`CCCCCCCCCCCCC/C=C/[C@@H](O)[C@@H](N)CO` [D/L sphingosine] was tested, and the “inhibition of hSK1 (precipitation of the fluoresceinated product, FIG. 6)” value was “caused less precipitation of the fluoresceinated product”.

In the case of `CCCCCCCCCCCCC/C=C/[C@@H](O)[C@H](CO)N(C)C` [DMS, dimethylsphingosine], the “inhibition of hSK1 (precipitation of the fluoresceinated product, FIG. 6)” value is reported as “caused less precipitation of the fluoresceinated product”.
